Test [1] concerns MIA PaCa-2 (KRAS G12C) cells. In words: Cellular pERK HTRF assay. The note with it: Homo sapiens; MIA PaCa-2 cells, 4 hours, phospho-ERK 1/2 HTRF; read-out: G12C_pERK (KRAS_G12C pERK assay IC50). In kind it is cell-based. The method, then:
MIA PaCa-2 (KRAS G12C; ATCC® CRL-1420), A427 (KRAS G12D; ATCC® HTB53), HPAF-II (KRAS G12D; ATCC® CRL-1997) and NCI-H838 (KRAS WT; ATCC® CRL-5844) cells are purchased from ATCC and maintained in RPMI 1640 media supplemented with 10% FBS (Gibco/Life Technologies). The cells are plated at 5000 cells per well (8 uL) into Greiner 384-well low volume, flat-bottom, tissue culture treated white plates and incubated overnight at 37° C. 5% CO2. The next morning, test compound stock solutions are diluted in media at 3× the final concentration, and 4 uL are added to the cells. The plate is mixed by gentle rotation for 30 seconds (250 rpm) at room temperature. The cells are incubated with the KRAS G12C and G12D compounds for 4 hours or 2 hours respectively at 37° C., 5% CO2.
4 uL of 4× lysis buffer with blocking reagent (1:25) (Cisbio) are added to each well and plates are rotated gently (300 rpm) for 30 minutes at room temperature. 4 uL per well of Cisbio anti Phospho-ERK 1/2 d2 is mixed with anti Phospho-ERK 1/2 Cryptate (1:1) are added to each well, mixed by rotation and incubated overnight in the dark at room temperature. Plates are read on the Pherastar plate reader at 665 nm and 620 nm wavelengths. IC50 determination is performed by fitting the curve of inhibitor percent inhibition versus the log of the inhibitor concentration using the GraphPad Prism 7 software.
(In general: TR-FRET usually uses a lanthanide donor and a delayed reading to cut background.)

Test [2] deals with MIA PaCa-2 cells (KRAS G12C). In words: Whole blood pERK1/2 HTRF assay. The note with it: Homo sapiens, compound in whole blood, 4 hours, phospho-ERK 1/2 HTRF, read-out: G12C_WB_pERK assay IC50. The test is classed as cell-based. The method, then:
MIA PaCa-2 cells (KRAS G12C; ATCC® CRL-1420) and HPAF-II (KRAS G12D; ATCC® CRL-1997) are maintained in RPMI 1640 with 10% FBS (Gibco/Life Technologies). The cells are seeded into 96 well tissue culture plates (Corning #3596) at 25000 cells per well in 100 uL media and cultured for 2 days at 37° C. 5% CO2 so that they are approximately 80% confluent at the start of the assay. Whole Blood are added to the 1 uL dots of compounds (prepared in DMSO) in 96 well plates and mixed gently by pipetting up and down so that the concentration of the compound in blood is 1× of desired concentration. The media is aspirated from the cells and 50 uL per well of whole blood with G12C or G12D compound is added and incubated for 4 or 2 hours respectively at 37° C. 5% CO2. After dumping the blood, the plates are gently washed twice by adding PBS to the side of the wells and dumping the PBS from the plate onto a paper towel, tapping the plate to drain well. 50 ul/well of 1× lysis buffer #1 (Cisbio) with blocking reagent (1:25) (Cisbio) is then added and incubated at room temperature for 30 minutes with shaking (250 rpm). Following lysis, 16 uL of lysate is transferred into 384-well Greiner small volume white plate using an Assist Plus (Integra Biosciences, NH). 4 uL of 1:1 mixture of anti Phospho-ERK 1/2 d2 and anti Phospho-ERK 1/2 Cryptate (Cisbio) is added to the wells using the Assist Plus and incubated at room temperature overnight in the dark. Plates are read on the Pherastar plate reader at 665 nm and 620 nm wavelengths. IC50 determination is performed by fitting the curve of inhibitor percent inhibition versus the log of the inhibitor concentration using the GraphPad Prism 7 software.

Another test deals with KRAS G12C (Homo sapiens, UniProt P01116, G12C). In words: GDP-GTP exchange assay (fluorescence based guanine nucleotide exchange, bodipy-GDP for GppNHp, SOS1). In kind it is biochemical. The note with it: bodipy-loaded KRAS G12C, 2 hours pre-incubation with inhibitor, read-out: G12C_exchange (KRAS_G12C exchange assay IC50). In short, it runs like this:
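Bodipy-GDP-loaded KRAS G12C (5-25 nM final) pre-incubated 2 h with inhibitor in Hepes pH 7.5, MgCl2 buffer, then exchange started with 500 uM GppNHp and 150 nM SOS1 for 2 h at ambient temperature. G12D and G12V used 2.5 nM protein, with 4 h and 3 h exchange respectively. Fluorescence read at 485/520 nm; IC50 from four-parameter logistic fit.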

SMILES strings stand for the structures.

As a reminder, the IC50 is the point on the concentration scale where inhibition reaches its midpoint.

Sequence of KRAS G12C (P01116 1-188 isoform P01116-2 G12C): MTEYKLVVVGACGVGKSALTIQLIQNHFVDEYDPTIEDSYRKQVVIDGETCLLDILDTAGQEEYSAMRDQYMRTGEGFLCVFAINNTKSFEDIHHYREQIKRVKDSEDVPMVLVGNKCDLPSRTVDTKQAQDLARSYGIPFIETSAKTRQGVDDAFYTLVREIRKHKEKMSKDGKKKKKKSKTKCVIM

`C=CC(=O)N1CC(F)(Cn2c(=O)c(=O)n(-c3c(C)ccnc3C(C)C)c3nc(-c4c(Cl)ccc5c4OCO5)c(Cl)cc32)C1` [Example 60, 1-((1-acryloyl-3-fluoroazetidin-3-yl)methyl)-7-chloro-6-(5-chlorobenzo[d][1,3]dioxol-4-yl)-4-(2-isopropyl-4-methylpyridin-3-yl)-1,4-dihydropyrido[2,3-b]pyrazine-2,3-dione]: the 50% inhibitory concentration (IC50) in test [1] was not above 100 nM; in test [2], 100 to 1000 nM; at KRAS G12C, not above 100 nM.
Turning to `C=CC(=O)N1CC(F)(Cn2c(=O)c(=O)n(-c3c(C)ccnc3C(C)C)c3nc(-c4c(C)cccc4OC)c(Cl)cc32)C1` [Example 58, 1-((1-acryloyl-3-fluoroazetidin-3-yl)methyl)-7-chloro-4-(2-isopropyl-4-methylpyridin-3-yl)-6-(2-methoxy-6-methylphenyl)-1,4-dihydropyrido[2,3-b]pyrazine-2,3-dione], the IC50 in test [1] was not above 100 nM; in test [2], 100 to 1000 nM; at KRAS G12C, not above 100 nM.
On to `C=CC(=O)N1CC(F)(Cn2c(=O)c(=O)n(-c3c(C)ccnc3C(C)C)c3nc(-c4c(O)cccc4Cl)c(Cl)cc32)C1` [Example 56, 1-((1-acryloyl-3-fluoroazetidin-3-yl)methyl)-7-chloro-6-(2-chloro-6-hydroxyphenyl)-4-(2-isopropyl-4-methylpyridin-3-yl)-1,4-dihydropyrido[2,3-b]pyrazine-2,3-dione], for which the IC50 (in test [1]; in test [2]; at KRAS G12C) was not above 100 nM each time.
In the case of `C=CC(=O)N1CC(F)(Cn2c(=O)c(=O)n(-c3c(C)ccnc3C(C)C)c3nc(-c4c(Cl)cccc4CO)c(Cl)cc32)C1` [Example 59, 1-((1-acryloyl-3-fluoroazetidin-3-yl)methyl)-7-chloro-6-(2-chloro-6-(hydroxymethyl)phenyl)-4-(2-isopropyl-4-methylpyridin-3-yl)-1,4-dihydropyrido[2,3-b]pyrazine-2,3-dione], the 50% inhibitory concentration (IC50) in test [1] is not above 100 nM; in test [2], 100 to 1000 nM; on KRAS G12C, not above 100 nM.
Turning to `C=CC(=O)N1CC(F)(Cn2c(=O)c(=O)n(-c3c(C)ccnc3C(C)C)c3nc(-c4c(Cl)cccc4OC)c(Cl)cc32)C1` [Example 57, 1-((1-acryloyl-3-fluoroazetidin-3-yl)methyl)-7-chloro-6-(2-chloro-6-methoxyphenyl)-4-(2-isopropyl-4-methylpyridin-3-yl)-1,4-dihydropyrido[2,3-b]pyrazine-2,3-dione], the IC50 (in test [1]; in test [2]; on KRAS G12C) was not above 100 nM throughout.
With `C=CC(=O)N1CC(F)(Cn2c(=O)c(=O)n(-c3c(C(C)C)ccnc3C(C)C)c3nc(-c4c(O)cccc4Cl)c(Cl)cc32)C1` [Example 61, 1-((1-acryloyl-3-fluoroazetidin-3-yl)methyl)-7-chloro-6-(2-chloro-6-hydroxyphenyl)-4-(2,4-diisopropylpyridin-3-yl)-1,4-dihydropyrido[2,3-b]pyrazine-2,3-dione], the IC50 (in test [1]; in test [2]; at KRAS G12C) was not above 100 nM in each case.
Take `C=CC(=O)N1CC(F)(Cn2c(=O)c(=O)n(-c3c(C(C)C)ccnc3C(C)C)c3nc(-c4c(Cl)cccc4OC)c(Cl)cc32)C1` [Example 62, 1-((1-acryloyl-3-fluoroazetidin-3-yl)methyl)-7-chloro-6-(2-chloro-6-methoxyphenyl)-4-(2,4-diisopropylpyridin-3-yl)-1,4-dihydropyrido[2,3-b]pyrazine-2,3-dione]: the IC50 (in test [1]; in test [2]; on KRAS G12C) was not above 100 nM in each case.
For `C=CC(=O)N1CC(F)(Cn2c(=O)c(=O)n(-c3c(C(C)C)ccnc3C(C)C)c3nc(-c4c(C)cccc4OC)c(Cl)cc32)C1` [Example 63], the IC50 (in test [1]; in test [2]; on KRAS G12C) was not above 100 nM each time.
For `C=CC(=O)N1CC(Cn2c(=O)c(=O)n(-c3c(C(C)C)cccc3C(C)C)c3nc(-c4cccc(F)c4F)c(Cl)cc32)(OC)C1` [Example 9, 1-((1-acryloyl-3-methoxy-azetidin-3-yl)methyl)-7-chloro-4-(2,6-diisopropylphenyl)-6-(2,3-difluorophenyl)-1,4-dihydropyrido[2,3-b]pyrazine-2,3-dione], the IC50 (in test [1]; on KRAS G12C) was 100 to 1000 nM in each case.
Regarding `C=CC(=O)N1CC(F)(Cn2c(=O)c(=O)n(-c3c(C)ccnc3C(C)C)c3nc(-c4c(C)ccc5cn[nH]c45)c(Cl)cc32)C1` [Example 28, 1-((1-acryloyl-3-fluoroazetidin-3-yl)methyl)-7-chloro-4-(2-isopropyl-4-methylpyridin-3-yl)-6-(6-methyl-1H-indazol-7-yl)-1,4-dihydropyrido[2,3-b]pyrazine-2,3-dione], the IC50 (in test [1]; on KRAS G12C) was not above 100 nM in each case.
Regarding `C=CC(=O)N1CC(F)(Cn2c(=O)c(=O)n(-c3c(C)ccnc3C(C)C)c3nc(-c4cccc(C)c4F)c(Cl)cc32)C1` [Example 34, 1-((1-acryloyl-3-fluoroazetidin-3-yl)methyl)-7-chloro-6-(2-fluoro-3-methylphenyl)-4-(2-isopropyl-4-methylpyridin-3-yl)-1,4-dihydropyrido[2,3-b]pyrazine-2,3-dione], the concentration for half-maximal inhibition (IC50) (in test [1]; at KRAS G12C) was not above 100 nM in each case.
For the compound `C=C(F)C(=O)N1CC(F)(Cn2c(=O)c(=O)n(-c3c(C(C)C)ccnc3C(C)C)c3nc(-c4c(O)cccc4Cl)c(Cl)cc32)C1` [Example 64, 7-chloro-6-(2-chloro-6-hydroxyphenyl)-4-(2,4-diisopropylpyridin-3-yl)-1-((3-fluoro-1-(2-fluoroacryloyl)azetidin-3-yl)methyl)-1,4-dihydropyrido[2,3-b]pyrazine-2,3-dione], the IC50 in test [1] is not above 100 nM; in test [2] it was 100 to 1000 nM; on KRAS G12C, not above 100 nM.
Regarding `C=CC(=O)N1CC(F)(Cn2c(=O)c(=O)n(-c3c(C)ccnc3C(C)C)c3nc(-c4ccccc4C(F)(F)F)c(Cl)cc32)C1` [Example 37, 1-((1-acryloyl-3-fluoroazetidin-3-yl)methyl)-7-chloro-4-(2-isopropyl-4-methylpyridin-3-yl)-6-(2-(trifluoromethyl)phenyl)-1,4-dihydropyrido[2,3-b]pyrazine-2,3-dione], the values for the IC50 (in test [1]; on KRAS G12C) were 100 to 1000 nM and not above 100 nM, respectively.
Consider `C=CC(=O)N1CC(F)(Cn2c(=O)c(=O)n(-c3c(C(C)C)cccc3C(C)C)c3nc(-c4c(O)cccc4F)c(Cl)cc32)C1` [Example 12, 1-((1-acryloyl-3-fluoroazetidin-3-yl)methyl)-7-chloro-4-(2,6-diisopropylphenyl)-6-(2-fluoro-6-hydroxyphenyl)-1,4-dihydropyrido[2,3-b]pyrazine-2,3-dione], for which the IC50 (in test [1]; at KRAS G12C) was not above 100 nM throughout.
Turning to `C=CC(=O)N1CC(O)(Cn2c(=O)c(=O)n(-c3c(C)ccnc3C(C)C)c3nc(-c4c(O)ccc(F)c4F)c(Cl)cc32)C1` [Example 45, 1-((1-acryloyl-3-hydroxyazetidin-3-yl)methyl)-7-chloro-6-(5,6-difluoro-2-hydroxyphenyl)-4-(2-isopropyl-4-methylpyridin-3-yl)-1,4-dihydropyrido[2,3-b]pyrazine-2,3-dione], the results for the IC50 (in test [1]; at KRAS G12C) were 1000 to 5000 nM and not above 100 nM, respectively.
